# Results taken from paper PMC7933318, “Engineering a lipoxygenase from cyclocybe aegerita towards long chain polyunsaturated fatty acids” (AMB Express, 2021).
# Target: T1, CaeLox1 (Cyclocybe aegerita, UniProt A0A8A1QR86)
# T1 construct: gene LOX1; codon-optimized cDNA in pET28a, E. coli BL21-Gold (DE3), Ni-NTA purified
# T1 sequence (A0A8A1QR86 1-656): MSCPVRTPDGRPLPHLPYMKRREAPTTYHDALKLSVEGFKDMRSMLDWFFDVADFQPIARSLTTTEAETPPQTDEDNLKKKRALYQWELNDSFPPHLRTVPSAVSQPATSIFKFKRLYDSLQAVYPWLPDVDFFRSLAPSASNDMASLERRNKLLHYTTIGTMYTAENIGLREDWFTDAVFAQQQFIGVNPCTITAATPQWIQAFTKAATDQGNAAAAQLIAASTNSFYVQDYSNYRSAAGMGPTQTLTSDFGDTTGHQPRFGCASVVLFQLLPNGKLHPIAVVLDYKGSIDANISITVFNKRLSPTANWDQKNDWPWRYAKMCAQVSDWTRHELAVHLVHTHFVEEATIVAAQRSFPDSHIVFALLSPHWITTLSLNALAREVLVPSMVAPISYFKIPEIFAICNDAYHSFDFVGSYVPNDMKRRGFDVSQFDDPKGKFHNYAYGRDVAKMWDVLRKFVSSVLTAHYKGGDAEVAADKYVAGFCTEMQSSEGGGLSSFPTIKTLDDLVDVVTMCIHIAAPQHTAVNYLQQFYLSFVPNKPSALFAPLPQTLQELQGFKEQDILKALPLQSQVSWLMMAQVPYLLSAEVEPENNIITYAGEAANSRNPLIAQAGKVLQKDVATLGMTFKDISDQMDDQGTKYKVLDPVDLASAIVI
# Assay: conjugated diene formation at […] nm, specific activity
# Format: biochemical
# Conditions: 1.25 mM PUFA, 50 mM phosphate pH 7.5, 25 °C
smiles,measurement,value
"CCCCC/C=C\C/C=C\CCCCCCCC(=O)O [LA, linoleic acid]",specific activity,"we investigated the specific activities of PUFAs occurring (linoleic acid, linolenic acid)"
